In patent US12325726B2, “Organic compounds” (priority 2018, dated 2025):
Like-named read-outs stand apart in the source and are kept apart here.

Key:
[1] = In vivo mouse pharmacokinetics, paired oral co-dosing, plasma and brain; set-up: species or system mice; settings: for Cmax / Tmax / AUC / concentration at 0.25 hr / concentration at 0.5 hr / concentration at 1 hr / concentration at 2 hr / concentration at 4 hr / concentration at 6 hr / Kp: 10 mg/kg po co-dosed; for AUC: 0.25-6 hr sampling; for Kp: brain/plasma, read-out: B/P AUC Ratio
Procedure: In a first study, the compounds of Examples 2 to 6 are compared to the Compound of Formula A (Example 1) using standard procedures in mice. In each test, two compounds are co-dosed in a single animal and the relative pharmacokinetics in plasma and brain is determined. Each test compound is dissolved in polyethylene glycol 400 vehicle, and administered orally at a dose of 10 mg/kg. After single dose oral administration of the test compounds together, plasma and brain levels are measured at 0.25, 0.5, 1, 2, 4, and 6 hours post-dosing. The mean values for maximum concentration, time to maximum concentration, and Area Under the Curve (AUC) for both compounds are determined. The results are summarized in the tables below for various paired co-dosing experiments: […]

human hepatocyte = assay: In vitro human hepatocyte stability assay; type: in vitro ADME; settings: human hepatocytes
Procedure: The compounds of Examples 1, 2, 5 and 6 are compared in a standard in vitro human hepatocyte stability assay run in duplicate. Compounds are provided as 1 M solutions in DMSO, and concentration of test compound is determined at 0.5, 1.0 and 4.0 hours after addition of the test compound. Results are shown below as a percentage of initial concentration.

[2] = brain, read-out: Brain concentration
[3] = plasma, read-out: Plasma concentration

SMILES: [2H]c1nc([2H])n(CC(=O)[C@H]2CC[C@H]3[C@@H]4CC[C@H]5C[C@@](O)(COC)CC[C@]5(C)[C@H]4CC[C@]23C)c1[2H] [Example 2, 1-((3R,5S,8R,9S,10S,13S,14S,17S)-3-hydroxy-3-(methoxymethyl)-10,13-dimethylhexadecahydro-1H-cyclopenta[a]phenanthren-17-yl)-2-(1H-imidazol-1-yl-d3)ethan-1-one]
- brain exposure of drug compared to the non-deuterated compound of Example 1 ([1]; 10 mg/kg po): much higher
- brain/plasma AUC ratio compared to Example 1 ([1]; 10 mg/kg po): much higher
- Cmax ([1]; brain): 7600 ng/g
- Tmax ([1]; brain): 1 h
- AUC ([1]; brain): 29000 ng·h/mL
- concentration at 0.25 hr [1, 2]: 1840 ng/g
- concentration at 0.5 hr [1, 2]: 5590 ng/g
- concentration at 1 hr [1, 2]: 7600 ng/g
- concentration at 2 hr [1, 2]: 6340 ng/g
- concentration at 4 hr [1, 2]: 4890 ng/g
- concentration at 6 hr [1, 2]: 1410 ng/g
- Kp [1]: 2.8
- Cmax ([1]; plasma): 2550 ng/mL
- Tmax ([1]; plasma): 1 h
- AUC ([1]; plasma): 10300 ng·h/mL
- concentration at 0.25 hr [1, 3]: 1180 ng/mL
- concentration at 0.5 hr [1, 3]: 1740 ng/mL
- concentration at 1 hr [1, 3]: 2550 ng/mL
- concentration at 2 hr [1, 3]: 2120 ng/mL
- concentration at 4 hr [1, 3]: 1760 ng/mL
- concentration at 6 hr [1, 3]: 774 ng/mL
- percentage of initial concentration (human hepatocyte; 0 hr): 100%
- percentage of initial concentration (human hepatocyte; 0.5 hr): 105%
- percentage of initial concentration (human hepatocyte; 1.0 hr): 107%
- percentage of initial concentration (human hepatocyte; 4.0 hr): 92%

SMILES: [2H]c1nc([2H])n(C([2H])C(=O)[C@@]2([2H])CC[C@H]3[C@@H]4CC[C@H]5C[C@@](O)(COC([2H])([2H])[2H])CC[C@]5(C)[C@H]4CC[C@@]32C)c1[2H] (stereo partly drawn) [Example 6, 1-((3R,5S,8R,9S,10S,13S,14S,17S)-3-hydroxy-3-((methoxy-d3)methyl)-10,13-dimethylhexadecahydro-1H-cyclopenta[a]phenanthren-17-yl-17-d)-2-(1H-imidazol-1-yl-d3)ethan-1-one-2-d]
- brain exposure of drug compared to the non-deuterated compound of Example 1 ([1]; 10 mg/kg po): much higher
- brain/plasma AUC ratio compared to Example 1 ([1]; 10 mg/kg po): much higher
- Cmax ([1]; brain): 5350 ng/g
- Tmax ([1]; brain): 1 h
- AUC ([1]; brain): 22400 ng·h/mL
- concentration at 0.25 hr [1, 2]: 3300 ng/g
- concentration at 0.5 hr [1, 2]: 5350 ng/g
- concentration at 1 hr [1, 2]: 5300 ng/g
- concentration at 2 hr [1, 2]: 4880 ng/g
- concentration at 4 hr [1, 2]: 3060 ng/g
- concentration at 6 hr [1, 2]: 2110 ng/g
- Kp [1]: 2.7
- Cmax ([1]; plasma): 2120 ng/mL
- Tmax ([1]; plasma): 1 h
- AUC ([1]; plasma): 8200 ng·h/mL
- concentration at 0.25 hr [1, 3]: 1410 ng/mL
- concentration at 0.5 hr [1, 3]: 1850 ng/mL
- concentration at 1 hr [1, 3]: 2120 ng/mL
- concentration at 2 hr [1, 3]: 1650 ng/mL
- concentration at 4 hr [1, 3]: 1220 ng/mL
- concentration at 6 hr [1, 3]: 642 ng/mL
- percentage of initial concentration (human hepatocyte; 0 hr): 100%
- percentage of initial concentration (human hepatocyte; 0.5 hr): 83%
- percentage of initial concentration (human hepatocyte; 1.0 hr): 69%
- percentage of initial concentration (human hepatocyte; 4.0 hr): 45%

SMILES: [2H]C([2H])([2H])OC[C@@]1(O)CC[C@@]2(C)[C@@H](CC[C@@H]3[C@@H]2CC[C@]2(C)[C@@H](C(=O)Cn4ccnc4)CC[C@@H]32)C1 [Example 3, 1-((3R,5S,8R,9S,10S,13S,14S,17S)-3-hydroxy-3-((methoxy-d3)methyl)-10,13-dimethylhexadecahydro-1H-cyclopenta[a]phenanthren-17-yl)-2-(1H-imidazol-1-yl)ethan-1-one]
- plasma and brain AUC values and B/P ratio compared to Example 1 ([1]; 10 mg/kg po): similar
- Cmax ([1]; brain): 2620 ng/g
- Tmax ([1]; brain): 1 h
- AUC ([1]; brain): 13200 ng·h/mL
- concentration at 0.25 hr [1, 2]: 2200 ng/g
- concentration at 0.5 hr [1, 2]: 2000 ng/g
- concentration at 1 hr [1, 2]: 2620 ng/g
- concentration at 2 hr [1, 2]: 2370 ng/g
- concentration at 4 hr [1, 2]: 2200 ng/g
- concentration at 6 hr [1, 2]: 1980 ng/g
- Kp [1]: 1.2
- Cmax ([1]; plasma): 2420 ng/mL
- Tmax ([1]; plasma): 1 h
- AUC ([1]; plasma): 11300 ng·h/mL
- concentration at 0.25 hr [1, 3]: 2170 ng/mL
- concentration at 0.5 hr [1, 3]: 1570 ng/mL
- concentration at 1 hr [1, 3]: 2420 ng/mL
- concentration at 2 hr [1, 3]: 2020 ng/mL
- concentration at 4 hr [1, 3]: 1810 ng/mL
- concentration at 6 hr [1, 3]: 1720 ng/mL

SMILES: [2H]c1nc([2H])n(CC(=O)[C@H]2CC[C@H]3[C@@H]4CC[C@H]5C[C@@](O)(COC([2H])([2H])[2H])CC[C@]5(C)[C@H]4CC[C@]23C)c1[2H] [Example 4, 1-((3R,5S,8R,9S,10S,13S,14S,17S)-3-hydroxy-3-((methoxy-d3)methyl)-10,13-dimethylhexadecahydro-1H-cyclopenta[a]phenanthren-17-yl)-2-(1H-imidazol-1-yl-d3)ethan-1-one]
- brain exposure of drug compared to the non-deuterated compound of Example 1 ([1]; 10 mg/kg po): much higher
- brain/plasma AUC ratio compared to Example 1 ([1]; 10 mg/kg po): much higher
- Cmax ([1]; brain): 6530 ng/g
- Tmax ([1]; brain): 1 h
- AUC ([1]; brain): 25000 ng·h/mL
- concentration at 0.25 hr [1, 2]: 1710 ng/g
- concentration at 0.5 hr [1, 2]: 5070 ng/g
- concentration at 1 hr [1, 2]: 6530 ng/g
- concentration at 2 hr [1, 2]: 5480 ng/g
- concentration at 4 hr [1, 2]: 4200 ng/g
- concentration at 6 hr [1, 2]: 1180 ng/g
- Kp [1]: 2.7
- Cmax ([1]; plasma): 2520 ng/mL
- Tmax ([1]; plasma): 1 h
- AUC ([1]; plasma): 9220 ng·h/mL
- concentration at 0.25 hr [1, 3]: 896 ng/mL
- concentration at 0.5 hr [1, 3]: 1490 ng/mL
- concentration at 1 hr [1, 3]: 2520 ng/mL
- concentration at 2 hr [1, 3]: 1950 ng/mL
- concentration at 4 hr [1, 3]: 1600 ng/mL
- concentration at 6 hr [1, 3]: 423 ng/mL

SMILES: [2H]C(C(=O)[C@@]1([2H])CC[C@H]2[C@@H]3CC[C@H]4C[C@@](O)(COC([2H])([2H])[2H])CC[C@]4(C)[C@H]3CC[C@@]21C)n1ccnc1 (stereo partly drawn) [Example 5, 1-((3R,5S,8R,9S,10S,13S,14S,17S)-3-hydroxy-3-((methoxy-d3)methyl)-10,13-dimethylhexadecahydro-1H-cyclopenta[a]phenanthren-17-yl-17-d)-2-(1H-imidazol-1-yl)ethan-1-one-2-d]
- Cmax ([1]; brain): 5700 ng/g
- Tmax ([1]; brain): 1 h
- AUC ([1]; brain): 23500 ng·h/mL
- concentration at 0.25 hr [1, 2]: 3450 ng/g
- concentration at 0.5 hr [1, 2]: 5540 ng/g
- concentration at 1 hr [1, 2]: 5700 ng/g
- concentration at 2 hr [1, 2]: 5100 ng/g
- concentration at 4 hr [1, 2]: 3180 ng/g
- concentration at 6 hr [1, 2]: 2240 ng/g
- Kp [1]: 2.6
- Cmax ([1]; plasma): 2300 ng/mL
- Tmax ([1]; plasma): 1 h
- AUC ([1]; plasma): 8900 ng·h/mL
- concentration at 0.25 hr [1, 3]: 1490 ng/mL
- concentration at 0.5 hr [1, 3]: 1960 ng/mL
- concentration at 1 hr [1, 3]: 2300 ng/mL
- concentration at 2 hr [1, 3]: 1770 ng/mL
- concentration at 4 hr [1, 3]: 1340 ng/mL
- concentration at 6 hr [1, 3]: 725 ng/mL
- percentage of initial concentration (human hepatocyte; 0 hr): 100%
- percentage of initial concentration (human hepatocyte; 0.5 hr): 83%
- percentage of initial concentration (human hepatocyte; 1.0 hr): 80%
- percentage of initial concentration (human hepatocyte; 4.0 hr): 52%
